# From patent US20220344599A1, “METAL COMPLEX AND ELECTRON TRANSPORTING MATERIAL COMPRISING SAME” (DYDEN CORPORATION, priority 2019, published 2022)
# Experiment: dissolution test of metal complexes in protic polar solvents
# Type: physicochemical
# Parameters: key to dissolution test, 7.5 g/L: a case where an undissolved remnant was present was evaluated as “X”; a case where a slight undissolved remnant was present was evaluated as “Δ”; a case of complete dissolution was evaluated as “ο”
# Description: The metal complexes obtained in [1] were each dissolved in a protic polar solvent shown in Table 1 to produce a liquid material for constructing the electron transport layer of an organic electroluminescent element.
# For example, Metal complex L101-Cs was dissolved in 1-heptanol to prepare alcohol solutions of 7.5 g/L to 15 g/L.
# In Table 1, a case where an undissolved remnant was present was evaluated as “X”, a case where a slight undissolved remnant was present was evaluated as “Δ”, and a case of complete dissolution was evaluated as “ο”.
"dissolution test, 7.5 g/L (1-Heptanol)","dissolution test, 15 g/L (1-Heptanol)",Structure (SMILES),further results
○,○,O=P(c1ccccc1)(c1ccc2ccc3cccnc3c2n1)c1ccc(O)c2c1oc1cccnc12 (stereo not drawn) [L302-Rb],–
○,–,O=P(c1ccccc1)(c1ccccc1)c1ccc2ccc3ccc(-c4ccc(O)c5c4oc4cccnc45)nc3c2n1 [L303-Cs],–
○,○,O=P(c1ccccc1)(c1ccc2ccc3cccnc3c2n1)c1ccc(O)c2c1oc1cccnc12 (stereo not drawn) [L302-Li],–
○,–,Oc1cccc2c1nc(-c1ccccc1)n2-c1cccc(-c2ccc3ccc4cccnc4c3n2)c1 [L101-Cs],–
Δ,–,Oc1cccc2oc3cc(-c4ccc5ccc6cccnc6c5n4)cnc3c12 [L301-Cs],"dissolution test, 5 g/L (1-Heptanol, 5 g/L): ○; dissolution test, 7.5 g/L (2-Methoxyethanol): ○; dissolution test, 15 g/L (2-Methoxyethanol): ○"
○,○,O=P(c1ccccc1)(c1ccc2ccc3cccnc3c2n1)c1ccc(O)c2c1oc1cccnc12 (stereo not drawn) [L302-Cs],–
○,–,Oc1ccc(-c2ccc3ccc4cccnc4c3n2)c2c1nc(-c1ccccc1)n2-c1ccccc1 [L103-Cs],–
○,–,Oc1cccc2c1nc(-c1ccccc1)n2-c1ccc2ccc3cccnc3c2n1 [L102-Cs],–
○,–,Oc1cccc2c1nc(-c1ccccc1)n2-c1cccc(-c2ccc3ccc4cccnc4c3n2)c1 [L101-Rb],–
